In general, melting point refers to the temperature of the solid-liquid transition. For orientation: IC50 means the point on the concentration scale where inhibition reaches its midpoint.

Counter-ions that a name gives are not always drawn.

Data set [1] has as its system Vero cells. Description: Cytotoxicity assay (CCK) in Vero cells. The conditions noted are these: Vero cells; calculated on the organic part; n = 3. The data set is classed as cell-based, African green monkey. On the procedure: (§1) Vero cells were purchased from the American Type Culture Collection (ATCC, […], MD, USA), and were cultured in Minimum Essential Medium (MEM) supplemented with 10% fetal bovine serum (FBS) (GIBCO, Grand Island, NY, USA) and antibiotics (100 U/mL penicillin and […] streptomycin) at 37 °C in a 5% CO2 incubator. EV71 strain SHZH98 isolated from the throat swab sample of an HFMD case occurring in 1998 in China was kindly provided by Dr. Qi Jin (Institute of Pathogen Biology, Chinese Academy of Medical Science and Peking Union Medical School, Beijing, China), and JS-52 strain was a kind gift from Dr. Xiangzhong Ye (Beijing Wantai Biological Pharmacy Enterprise Co., Ltd., Beijing, China). The EV71 BrCr and H strains were purchased from the ATCC. All of EV71 strains were passaged in Vero cells.
Cytotoxicity of all target compounds in Vero cells was analyzed by CCK (TransGen Biotech, Beijing, China) assay. In brief, cells in exponential phase (3 × 10^4 cells/well) were seeded into 96-well culture plates and incubated overnight. Then, the medium was removed and different concentrations of all target compounds were applied in duple. After 48 h incubation, the cytotoxicity of all target compounds was determined by CCK assay. The signals were read at 450 nm on Enspire (Perkin Elmer, Waltham, MA, USA). The TC50 was defined as the concentration that inhibits 50% cellular growth in comparison with the controls. It is calculated by the Reed and Muench method.

The subject of data set [2] is EV71 H strain (VR-1432, genotype C2). Description: CPE inhibition assay for anti-EV71, H strain. Type of data set: cell-based, enterovirus 71 (EV71). The conditions noted are these: Enterovirus A, EV71; Vero cells; CPE; calculated on the organic part; n = 3; read-out: H Strain IC50. As for the experimental part: (§2) Thus, all newly synthesized BBR analogues were screened for their anti-EV71 potencies in African green monkey kidney (Vero) cells taking BBR as the positive control. EV71 strains used in the present study include different genotype strains, such as H strain (VR-1432, genotype C2), BrCr strain (VR-1775, genotype A), and JS-52 and SHZH98 (genotype C4). The potency against EV71 strains above mentioned of each tested compound was evaluated by the combination of its IC50 and selectivity index (SI) value as the important therapeutic indication.
as §1
(§3) The anti-EV71 activities of all tested compounds were detected by the virus-induced CPE assay. Briefly, cells (3 × 10^4 cells/well) were plated into 96-well culture plates and incubated for 16 h. Then, remove the medium and infected cells with EV71 of 100 × TCID50 (50% tissue culture infective doses) in serum-free medium for 1 h at 37 °C. After that, the unbound viruses were removed and various concentrations of tested compounds were supplemented for incubation of another 72 h. […] TC50 defined as the concentration that leads to the 50% of CPE which determined by the same method in 72 h. In addition, the cells were stained the cells were colored with 0.5% crystal violet in 20% ethanol for 15 min at room temperature and the cells were imaged after rinsed with PBS.

Data set [3] concerns EV71 JS-52 strain (genotype C4). The experiment in a line: CPE inhibition assay for anti-EV71, JS-52 strain. The conditions noted are these: Enterovirus A, EV71; Vero cells; CPE; calculated on the organic part; n = 3; read-out: JS-52 Strain IC50. The data set is classed as cell-based, enterovirus 71 (EV71). As for the experimental part:
as §2, §1, §3

Data set [4] deals with EV71 SHZH98 strain (genotype C4). Description: CPE inhibition assay for anti-EV71, SHZH98 strain. The data set is classed as cell-based, enterovirus 71 (EV71). The conditions noted are these: Enterovirus A, EV71; Vero cells; CPE; calculated on the organic part; n = 3; read-out: SHZH98 Strain IC50. As for the experimental part:
as §2, §1, §3

The subject of data set [5] is EV71 BrCr strain (VR-1775, genotype A). The experiment in a line: CPE inhibition assay for anti-EV71, BrCr strain. The data set is classed as cell-based, enterovirus 71 (EV71). The conditions noted are these: Enterovirus A, EV71; Vero cells; CPE; calculated on the organic part; n = 3; read-out: BrCr Strain IC50. As for the experimental part: as §2, §1, §3
For data set [6], the system named is four different genotype enterovirus 71 (EV71) strains. Description: CPE assay, summary over the four EV71 strains. Type of data set: cell-based. The conditions noted are these: Enterovirus A, EV71, read-out: IC50 (Figure 1). On the procedure:
as §2, §3

Data set [7] concerns MEK/ERK signaling pathway. The arrangement: method as in PMID 28081706. The conditions noted are these: cited from earlier work.

Take `COc1cc2c(cc1OC)-c1cc3ccc(OC)c(OCC(=O)c4ccc(C(F)(F)F)cc4)c3c[n+]1CC2` (as salt: chloride) [4f, 2,3,10-Trimethoxy-9-p-trifloromethylphenylformylmethylenoxy protoberberine chloride]: the melting point fell in the range of 240 to 242 °C.
As to `COc1cc2c(cc1OC)-c1cc3ccc(OC)c(OC(=O)OCc4ccccc4)c3c[n+]1CC2` (as salt: chloride) [4g, 2,3,10-Trimethoxy-9-benzyloxyformyloxy protoberberine chloride], the melting point fell in the range of 98 to 100 °C.
On the same count and under the same terms, to `CCOC(=O)COc1cc2c(cc1OC)-c1cc3ccc(OC)c(OC)c3c[n+]1CC2` (as salt: chloride) [5a, 2,9,10-Trimethoxy-3-ethyloxyformylmethylenoxy protoberberine chloride] belongs 234 to 236 °C; to `COc1cc2c(cc1OCC(=O)C(C)(C)C)CC[n+]1cc3c(OC)c(OC)ccc3cc1-2` (as salt: chloride) [5b, 2,9,10-Trimethoxy-3-pivalylmethylenoxy protoberberine chloride], 223 to 225 °C; to `COc1cc2c(cc1OCC(=O)OCc1ccccc1)CC[n+]1cc3c(OC)c(OC)ccc3cc1-2` (as salt: chloride) [5c, 2,9,10-Trimethoxy-3-benzyloxyformylmethylenoxy protoberberine chloride], 217 to 219 °C.
Same read-out and setting: to `COc1cc2c(cc1OCC(=O)c1ccc(C)cc1)CC[n+]1cc3c(OC)c(OC)ccc3cc1-2` (as salt: chloride) [5d, 2,9,10-Trimethoxy-3-p-methylphenylformylmethylenoxy protoberberine chloride] belongs 218 to 220 °C.
Regarding `COc1cccc(C(=O)COc2cc3c(cc2OC)-c2cc4ccc(OC)c(OC)c4c[n+]2CC3)c1` (as salt: chloride) [5e, 2,9,10-Trimethoxy-3-m-methoxyphenylformylmethylenoxy protoberberine chloride], the melting point fell in the range of 218 to 220 °C.
Same read-out and setting: to `COc1cc2c(cc1OCC(=O)c1ccc(C(F)(F)F)cc1)CC[n+]1cc3c(OC)c(OC)ccc3cc1-2` (as salt: chloride) [5f, 2,9,10-Trimethoxy-3-p-trifloromethylphenylformylmethylenoxy protober berine chloride] belongs 213 to 215 °C.
On the same count and under the same terms, to `COc1cc2c(cc1OC(=O)OCc1ccccc1)CC[n+]1cc3c(OC)c(OC)ccc3cc1-2` (as salt: chloride) [5g, 2,9,10-Trimethoxy-3-benzyloxyformyloxy protoberberine chloride] belongs 140 to 142 °C.
As for `COc1ccc2cc3[n+](cc2c1OC)CCc1cc2c(cc1-3)OCO2` [BBR, berberine], in data set [1], the “TC50 (median toxic concentration)” value was 147 µM. Moreover, the IC50 in data set [2] was 21.2 µM; in data set [3] it was 14 µM; in data set [4] it was 28.2 µM; in data set [5], 9.45 µM; in data set [6], 8.55 to 25.5 µM. Further, the “phosphorylation of MEK/ERK induced by EV71 infection” value in data set [7] is “could inhibit the phosphorylation of MEK/ERK”.

Values taken from PMC6222558, “Synthesis and Evolution of Berberine Derivatives as a New Class of Antiviral Agents against Enterovirus 71 through the MEK/ERK Pathway and Autophagy” (Molecules : A Journal of Synthetic Chemistry and Natural …, 2018).
